Common to all, as to assay: Post-emergence efficacy (B1), compounds of Formula (I) alone, evaluated after 13 days
Common to all, as to assay type: in vivo

For experiment [1], the system named is Amaranthus palmeri (AMAPA). The conditions noted are these: 500 g/Ha, post-emergence spray. As to the method:
(§1) Seeds of a variety of test species were sown in standard laom-based soil in pots: Ipomoea hederacea (IPOHE), Euphorbia heterophylla (EPHHL), Chenopodium album (CHEAL), Amaranthus palmeri (AMAPA), Lolium perenne (LOLPE), Digitaria sanguinalis (DIGSA), Eleusine indica (ELEIN), Echinochloa crus-galli (ECHCG), Setaria faberi (SETFA). After cultivation for 14 days (post-emergence) under controlled conditions in a glasshouse (at 24/16° C., day/night; 14 hours light; 65% humidity), the plants were sprayed with an aqueous spray solution derived from the dissolution of the technical active ingredient Formula (I) in a small amount of acetone and a special solvent and emulsifier mixture referred to as IF50 (11.12% Emulsogen EL360 TM+44.44% N-methylpyrrolidone+44.44% Dowanol DPM glycol ether), to create a 50 g/I solution which was then diluted to required concentration using 0.25% or 1% Empicol ESC70 (Sodium lauryl ether sulphate)+1% ammonium sulphate as diluent. The delivery of the aqueous spray solution was via a laboratory track sprayer which delivered the aqueous spray composition at a rate of 200 litres per hectare, using a flat fan nozzle (Teejet 11002VS) and an application volume of 200 litre/ha (at 2 bar).
(§2) The test plants were then grown in a glasshouse under controlled conditions (at 24/16° C., day/night; 14 hours light; 65% humidity) and watered twice daily. After 13 days the test was evaluated (100=total damage to plant; 0=no damage to plant).

Experiment [2] has as its system Chenopodium album (CHEAL). Conditions: 500 g/Ha, post-emergence spray. The procedure: as §1, §2
In experiment [3] the test system is Eleusine indica (ELEIN). The conditions noted are these: 500 g/Ha, post-emergence spray. As to the method: as §1, §2
Experiment [4] deals with Euphorbia heterophylla (EPHHL). The conditions noted are these: 500 g/Ha, post-emergence spray. As to the method: as §1, §2
The subject of experiment [5] is Digitaria sanguinalis (DIGSA). Conditions: 312 h, post-emergence spray, read-out: Control of weed species after post-emergence application: DIGSA (100=total damage to plant; 0=no damage to plant). The procedure: as §1, §2
In experiment [6] the test system is Echinochloa crus-galli (ECHCG). Conditions: 312 h, post-emergence spray, read-out: Control of weed species after post-emergence application: ECHCG (100=total damage to plant; 0=no damage to plant). As to the method:
as §1, §2

Experiment [7] deals with Ipomoea hederacea (IPOHE). The conditions noted are these: 312 h, post-emergence spray, read-out: Control of weed species after post-emergence application: IPOHE (100=total damage to plant; 0=no damage to plant). The procedure: as §1, §2
Experiment [8] deals with Lolium perenne (LOLPE). Conditions: 312 h, post-emergence spray, read-out: Control of weed species after post-emergence application: LOLPE (100=total damage to plant; 0=no damage to plant). The procedure:
as §1, §2

For experiment [9], the system named is Setaria faberi (SETFA). Conditions: 312 h, post-emergence spray, read-out: Control of weed species after post-emergence application: SETFA (100=total damage to plant; 0=no damage to plant). The procedure:
as §1, §2

Molecules are shown by their SMILES.

Consider `N[C@H](CC[n+]1ccc(-c2ncccn2)cn1)C(=O)O.O=C(O)C(F)(F)F.O=C([O-])C(F)(F)F` [Compound 1.029, [(1R)-1-carboxy-3-(4-pyrimidin-2-ylpyridazin-1-ium-1-yl)propyl]-ammonium 2,2,2-trifluoroacetate], for which the “Control of weed species after post-emergence application: AMAPA (100=total damage to plant; 0=no damage to plant)” value in experiment [1] is on record as 100. Further, in [2], the “Control of weed species after post-emergence application: CHEAL (100=total damage to plant; 0=no damage to plant)” value was 100. In experiment [3], the “Control of weed species after post-emergence application: ELEIN (100=total damage to plant; 0=no damage to plant)” value stood at 100. The “Control of weed species after post-emergence application: EPHHL (100=total damage to plant; 0=no damage to plant)” value in experiment [4] stood at 90.
As to `N[C@@H](CC[n+]1ccc(-c2ncccn2)cn1)C(=O)O.O=C(O)C(F)(F)F.O=C([O-])C(F)(F)F` [Compound 1.035, [(1S)-1-carboxy-3-(4-pyrimidin-2-ylpyridazin-1-ium-1-yl)propyl]-ammonium 2,2,2-trifluoroacetate], in experiment [1], the “Control of weed species after post-emergence application: AMAPA (100=total damage to plant; 0=no damage to plant)” value came to 100. The “Control of weed species after post-emergence application: CHEAL (100=total damage to plant; 0=no damage to plant)” value in experiment [2] is on record as 100. The pest or weed control at 500 g/ha in experiment [5] turned out to be 90%; in experiment [6] it was 60%; in experiment [7], 90%; in experiment [8], 20%; in [9], 100%. In addition, the “Control of weed species after post-emergence application: ELEIN (100=total damage to plant; 0=no damage to plant)” value in experiment [3] worked out at 100. The “Control of weed species after post-emergence application: EPHHL (100=total damage to plant; 0=no damage to plant)” value in [4] came to 90.

The values are drawn from US20220192195A1, “HERBICIDAL COMPOSITIONS” (SYNGENTA CROP PROTECTION AG, priority 2019, published 2022).
